Source: patent US20050065066A1, “Stabilised insulin compositions” (priority 2002, published 2005)
Read-outs that look alike come from different tables or passages of the source. Blank lines part the entries; values can stand above or below the molecule they belong to.

How the values were obtained:
[1] = target: T1, metal site of insulin R6 hexamers (Homo sapiens, UniProt P01308); experiment: TZD-assay: fluorescence based displacement assay; type: binding; conditions: affinity towards the zinc site, TZD-assay; read-out: Kd(app)
T1 construct: human insulin comprising additional amino acids, i.e. more than 51 amino acids
T1 sequence (P01308 25-54 limits assumed): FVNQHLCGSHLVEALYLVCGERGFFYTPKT
T1 sequence (P01308 90-110 limits assumed): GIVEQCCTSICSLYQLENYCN
Experimental: The binding affinity of ligands to the metal site of insulin R6 hexamers are measured in a fluorescense based displacement assay. The fluorescence of 5-(4-dimethylaminobenzylidene)thiazolidine-2,4-dione (TZD) which is a ligand for the metal site of insulin R6 is quenched upon displacement from the metal site to the solution. Titration of a ligand to a stock solution of insulin R6 hexamers with this compound mounted in the metal site allows the binding affinity of these ligands to be determined measuring the fluorescence at 455 nm upon excitation at 410 nm.
Stock solution: 0.02 mM human insulin, 0.007 mM Zn-acetate, 40 mM phenol, 0.01 mM TZD in 50 mM tris buffer adjusted to pH=8.0 with NaOH/ClO4^−.
The ligand is dissolved in DMSO to a concentration of 5 mM and added in aliquots to the stock solution to final concentrations of 0-250 µM.
Fluorescence measurements were carried out on a Perkin Elmer Spectrofluorometer LS50B. T main absorption band was excited at 410 nm and emission was detected at 455 nm. The resolution was 10 nm and 2.5 nm for excitation and emission, respectively.
This equation is fitted to the datapoints ΔF(455 nm))=ΔFmax* [ligand]free/(KD(app)*(1+[TZD]/KTZD)+[ligand]free)) KD(app) is the apparent dissociation constant and Fmax is the fluorescence at maximal ligand concentration. The value of KTZD is measured separately to 230 nM
Two different fitting-procedures can be used. One in which both parameters, KD(app) and Fmax, are adjusted to best fit the data and a second in which the value of Fmax is fixed (Fmax=1) and only KD(app) is adjusted. The given data are from the second fitting procedure. The Solver module of Microsoft Excel can be used to generate the fits from the data points.

[2] = Disappearance rate from the subcutaneous depot following injection in pigs; type: in vivo; conditions: disappearance assay
Text: Formulations of the present invention were characterized by the disappearance rate from the subcutaneous depot following injection in pigs. Formulations of B28 Asp human insulin containing A14Tyr(^125I) B28 Asp human insulin were followed with an external γ-counter (Ribel et al., The pig as a model for subcutaneous absorption in man. In: Serrano-Ritos & Lefebre (Eds.): Diabetes (1985) proceedings ot the 12th congress of the international diabetes federation, Madrid, Spain, 1985 (Excerpta Medica, Amsterdam (1986) 891-896. Formulations of Insulin Aspart (0.6 mM, U100) containing 0.3 mM Zn^2+, 30 mM phenol, 2 mM phosphate buffer, and 1.6% glycerol, pH 7.4, were compared with the corresponding formulations containing 0.3 mM of the ligands shown below: where T50% is the time when 50% ot the A14Tyr(^125I) B28 Asp insulin has disappeared from the site of injection and Kd is the affinity of the ligand as measured by the TZD-assay described in “Analytical methods” below.

[3] = Chemical stability of insulin formulations by RPC (reverse phase chromatography); type: physicochemical; conditions: formulated human insulin, 3 Zn2+ per hexamer
Experimental: (§1) The chemical stability of insulin formulations of the invention was characterised by HPLC (RPC, reverse phase chromatography and SEC, size exclusion chromatography). As reference, insulin formulated without ligands of the invention but with 0.3% DMSO was also investigated and shown below: [drawing]
FIG. 10. Reverse phase chromatography of formulated human insulin with 3 Zn^2+ per hexamer, 30 mM phenol, 150 mM mannitol, 3 mM phosphoric acid, sodium hydroxide to pH 7.4 and 0.3% DMSO corresponding to 3 ligands per hexamer at start (upper panel) and after storage for 2 weeks at 37° C. (lower panel): Preservatives before 20 min., “hydrophilic derivatives” (desamido-insulins) 20 min to main top insulin, “hydrophobic derivatives 1” main top to 64 min., and “hydrophobic derivatives 2” (insulin dimers) after 64 min.
(§2) Storage in HPLC 1 ml vials at 45° C. (5 d), 37° C. (2 w), 30° C. (6 w), 25° C. (10 w), 15° C. (30 w) gave about the same increase of transformation products correlating to an increase in reactions constants of a factor 3-4 per 10 degree.
RPC (reverse phase chromatography) on Waters SymmetryShield RP8 column, 150×4.6 mm and 3.5 μm, eluted by A: 0.2 M sodium sulfate+0.04 M sodium phosphate pH 7.2+10% acetonitrile and isocratically (i) or a gradient (g) of B: 70% acetonitrile [minutes/% B(i/g): 0/19, 21/24(i)(sudden change), 51/24(i), 81/39(g), 81.1/0(i), 82.3/19(i)] at flow of 0.9 mL/min and 30° C.

[4] = Chemical stability of insulin formulations by SEC (size exclusion chromatography); type: physicochemical; conditions: formulated human insulin, 3 Zn2+ per hexamer
Experimental: as §1, §2
SEC (size exclusion chromatography) on Waters insulin HMWP column, 300×7.8 mm, eluted by 15:20:65 of acetic acid: acetonitrile: arginine 1 g/L at flow of 1 mL/min and ambient temperature.

[5] = target: T1, metal site of insulin R6 hexamers; conditions: taken from Huang et al., 1997; read-out: K4H3N; cited from earlier work

SMILES: Cc1ccccc1Cn1c2ccccc2c2cc(-c3nn[nH]n3)ccc21 [Example 756, 9-(2-Methylbenzyl)-3-(2H-tetrazol-5-yl)-9H-carbazole]
- Kd [1]: 3 nM
- effect on insulin aspart disappearance from subcutaneous injection site [2]: no effect

SMILES: O=C(O)/C=C/c1ccc(/C=C2\SC(=O)NC2=O)cc1 [Example 462]
- Kd [1]: 58 nM
- hphil (hydrophilic derivatives, desamido-insulins) ([3]; 5° predicted): (0.293) % formed/year
- hphob1 (hydrophobic derivatives 1) ([3]; 5° predicted): (0.336) % formed/year
- hphob2 (hydrophobic derivatives 2, insulin dimers) ([3]; 5° predicted): (0.062) % formed/year
- hphil (hydrophilic derivatives, desamido-insulins) ([3]; 15° C.): 1.02 % formed/year
- hphob1 (hydrophobic derivatives 1) ([3]; 15° C.): 1.28 % formed/year
- hphob2 (hydrophobic derivatives 2, insulin dimers) ([3]; 15° C.): 0.38 % formed/year
- hphil (hydrophilic derivatives, desamido-insulins) ([3]; 25° C.): 2.60 % formed/year
- hphob1 (hydrophobic derivatives 1) ([3]; 25° C.): 6.14 % formed/year
- hphob2 (hydrophobic derivatives 2, insulin dimers) ([3]; 25° C.): 0.78 % formed/year
- hphil (hydrophilic derivatives, desamido-insulins) ([3]; 30° C.): 4.07 % formed/year
- hphob1 (hydrophobic derivatives 1) ([3]; 30° C.): 4.42 % formed/year
- hphob2 (hydrophobic derivatives 2, insulin dimers) ([3]; 30° C.): 1.65 % formed/year
- hphil (hydrophilic derivatives, desamido-insulins) ([3]; 37° C.): 9.88 % formed/year
- hphob1 (hydrophobic derivatives 1) ([3]; 37° C.): 19.5 % formed/year
- hphob2 (hydrophobic derivatives 2, insulin dimers) ([3]; 37° C.): 4.68 % formed/year
- hphil (hydrophilic derivatives, desamido-insulins) ([3]; 45° C.): 20.4 % formed/year
- hphob1 (hydrophobic derivatives 1) ([3]; 45° C.): 43.8 % formed/year
- hphob2 (hydrophobic derivatives 2, insulin dimers) ([3]; 45° C.): 17.5 % formed/year
- effect on insulin aspart disappearance from subcutaneous injection site [2]: no effect
- dimer ([4]; 5° predicted): (0.048) % formed/year
- dimer ([4]; 15° C.): 0.28 % formed/year
- dimer ([4]; 25° C.): 1.09 % formed/year
- dimer ([4]; 30° C.): 2.17 % formed/year
- dimer ([4]; 37° C.): 6.24 % formed/year
- dimer ([4]; 45° C.): 21.2 % formed/year

SMILES: O=C(O)c1ccc([N+](=O)[O-])c(O)c1 [Example 4H3N, 3-hydroxy-4-nitro benzoic acid]
- Kd [5]: 50000 nM

SMILES: O=C(O)c1cc2cc(Br)ccc2cc1O [Example 533, 7-bromo-3-hydroxy-2-naphthoic acid]
- Kd [1]: 383 nM
- hphil (hydrophilic derivatives, desamido-insulins) ([3]; 5° predicted): (0.55) % formed/year
- hphob1 (hydrophobic derivatives 1) ([3]; 5° predicted): (0.19) % formed/year
- hphob2 (hydrophobic derivatives 2, insulin dimers) ([3]; 5° predicted): (0.079) % formed/year
- hphil (hydrophilic derivatives, desamido-insulins) ([3]; 15° C.): 1.80 % formed/year
- hphob1 (hydrophobic derivatives 1) ([3]; 15° C.): 0.85 % formed/year
- hphob2 (hydrophobic derivatives 2, insulin dimers) ([3]; 15° C.): 0.42 % formed/year
- hphil (hydrophilic derivatives, desamido-insulins) ([3]; 25° C.): 4.06 % formed/year
- hphob1 (hydrophobic derivatives 1) ([3]; 25° C.): 5.67 % formed/year
- hphob2 (hydrophobic derivatives 2, insulin dimers) ([3]; 25° C.): 1.46 % formed/year
- hphil (hydrophilic derivatives, desamido-insulins) ([3]; 30° C.): 6.76 % formed/year
- hphob1 (hydrophobic derivatives 1) ([3]; 30° C.): 6.42 % formed/year
- hphob2 (hydrophobic derivatives 2, insulin dimers) ([3]; 30° C.): 2.25 % formed/year
- hphil (hydrophilic derivatives, desamido-insulins) ([3]; 37° C.): 12.5 % formed/year
- hphob1 (hydrophobic derivatives 1) ([3]; 37° C.): 22.4 % formed/year
- hphob2 (hydrophobic derivatives 2, insulin dimers) ([3]; 37° C.): 7.02 % formed/year
- hphil (hydrophilic derivatives, desamido-insulins) ([3]; 45° C.): 30.7 % formed/year
- hphob1 (hydrophobic derivatives 1) ([3]; 45° C.): 62.1 % formed/year
- hphob2 (hydrophobic derivatives 2, insulin dimers) ([3]; 45° C.): 23.4 % formed/year
- effect on insulin aspart disappearance from subcutaneous injection site [2]: no effect
- dimer ([4]; 5° predicted): (0.087) % formed/year
- dimer ([4]; 15° C.): 0.45 % formed/year
- dimer ([4]; 25° C.): 1.61 % formed/year
- dimer ([4]; 30° C.): 2.86 % formed/year
- dimer ([4]; 37° C.): 7.02 % formed/year
- dimer ([4]; 45° C.): 26.3 % formed/year

The remaining molecules from weak to strong by Kd [1], led by results:

- Kd [1]: 171 nM
- effect on insulin aspart disappearance from subcutaneous injection site [2]: no effect
SMILES: O=C(O)c1ccc(Cn2c3ccccc3c3cc(-c4nn[nH]n4)ccc32)cc1 [Example 738, 9-(4-Carboxybenzyl)-3-(2H-tetrazol-5-yl)-9H-carbazole]

- Kd [1]: 23 nM
- effect on insulin aspart disappearance from subcutaneous injection site [2]: no effect
SMILES: O=C1NC(=O)/C(=C/c2cccc3ccccc23)S1 [Example 68, 5-Naphthalen-1-ylmethylenethiazolidine-2,4-dione]
